Reference: PubChem BioAssay (NCI)
Several values for one entry are separate records, joined by “and”; a condition that tells them apart may be missing. Equal values may be shown once.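 Test compounds were applied to cells in 96-well plates for 48 hours at 5 doses. GI50 is the concentration that inhibits growth by half. TGI marks complete inhibition of growth.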

Assays:
Assay in all cases: inhibition of tumour cell growth, NCI panel, 48 h
HCT-116 colon = system: HCT-116 colon
HCT-15 colon = system: HCT-15 colon
HOP-92 NSCLC = system: HOP-92 NSCLC
MDA-MB-231 breast = system: MDA-MB-231 breast
OVCAR-5 ovarian = system: OVCAR-5 ovarian
SR leukemia = system: SR leukemia
SW-620 colon = system: SW-620 colon
UACC-257 melanoma = system: UACC-257 melanoma

SMILES | GI50 (HCT-116 colon) [µM] | TGI (HCT-116 colon) | GI50 (HCT-15 colon) [µM] | TGI (HCT-15 colon) | GI50 (HOP-92 NSCLC) [µM] | TGI (HOP-92 NSCLC) [µM] | GI50 (MDA-MB-231 breast) [µM] | TGI (MDA-MB-231 breast) | GI50 (OVCAR-5 ovarian) [µM] | TGI (OVCAR-5 ovarian) | GI50 (SR leukemia) [µM] | GI50 (SW-620 colon) [µM] | TGI (SW-620 colon) | GI50 (UACC-257 melanoma) [µM] | TGI (UACC-257 melanoma) | TGI (SR leukemia)
Cc1ccc2oc(=O)cc(C3c4ccc([nH]4)C(c4cc(=O)oc5ccc(C)cc45)c4ccc([nH]4)C(c4cc(=O)oc5ccc(C)cc45)c4ccc([nH]4)C(c4cc(=O)oc5ccc(C)cc45)c4ccc3[nH]4)c2c1 (configuration not stated) | 0.0295 | 0.28 µM | 0.0317 | 1.21 µM | 0.106 | 1.07 | 0.125 | 0.818 µM | 0.106 | 2.71 µM | 0.0417 | 0.0352 | 3.34 µM | 0.183 | 2.46 µM | 
Cc1[nH]ccc2cc3nc4ccccc4c3cc12 | 0.667 | 2.38 µM | 1.84 | 5.9 µM | 1.3 | 5.64 | 2 | 8.24 µM | 3.35 | 11.9 µM | 1.13 | 1.07 | 6.9 µM | 3.35 | 12.8 µM | 3.53 µM
CCCCCCCCCCC(CN(CC)CC)C(O)c1ccccc1 (configuration not stated) | 1.72 | 3.37 µM | 1.31 | 2.77 µM | 1.27 | 2.98 | 1.72 | 3.43 µM | 1.78 | 3.49 µM | 2.44 | 1.8 | 3.43 µM | 2.64 | 5.78 µM | 6.23 µM
COc1ccc(Cn2cc3c(c2-c2ccccc2)CCc2cncnc2-3)cc1 | 3.65 | 14.9 µM | 4.3 | 16.5 µM | 10.8 | 28.5 | 5.12 | 18.3 µM | 18.4 | 37.7 µM | 1.46 | 3.65 | 13.9 µM | 4.03 | 16.7 µM | 6.7 µM
CCN1CCN(c2cc(C)nc(NCc3cc(Nc4ccnc5cc(Cl)ccc45)ccc3F)n2)CC1 | 1.2 | 4.1 µM | 2.19 | 11.7 µM | 2.58 | 19.4 | 2.02 | 5.99 µM | 1.67 | 17.7 µM | 2.14 | 2.32 | 15.1 µM | 2.17 | 4.33 µM | 9.3 µM
C=CC1=C(C)C(Cc2[nH]c(/C=c3\[nH]/c(=C/C4=NC(=O)C(C)/C4=C\C)c(C)c3CCC(=O)O)c(CCC(=O)OC)c2C)NC1=O (configuration not stated) | 19.8 | 36.9 µM | 21.6 | 53.9 µM | 19.6 | 51.6 | 25.4 | 58.9 µM | 37.6 | > 100 µM | 20 | 25.4 | 61.4 µM | 7.9 | 41.1 µM | 46 µM
O=C(Nc1ccc([N+](=O)[O-])cc1)c1cc2ccccc2cc1O | 0.319 | 1.32 µM | 0.365 | 5.07 µM | 0.172 | 0.557 | 0.413 | 1.89 µM | 1.73 | 48.2 µM | 0.274 | 0.477 | > 27.5 µM | 0.313 | 1.48 µM | 1.05 µM
CN1CCN(c2ccc([N+](=O)[O-])c3no[n+]([O-])c23)CC1 | 0.152 | 1.63 µM and 0.634 µM | 0.227 | 2.15 µM and 1.21 µM | 0.188 | 1.2 |  | 3.46 µM and 3.65 µM | 1.49 | 4.25 µM and 3.27 µM | 0.0201 | 0.117 | 0.828 µM and 0.261 µM | 0.472 | 2.69 µM and 1.6 µM | 0.0274 µM and 0.0936 µM
CN(C)CCN1C(=O)c2cccc3c(-c4ccc5ncn(C6CCCCC6)c5c4)ccc(c23)C1=O | 0.422 | 10.9 µM | 1.34 | 10.6 µM | 1.79 | 6.45 | 2.18 | 9.78 µM | 2.99 | 20.1 µM | 0.496 | 1.06 | 11 µM | 3.19 | 8.41 µM | 5.47 µM
CC(C)c1ccc(O)c(O)c(=O)c1 (tested in a mixture with another compound) |  | > 42.9 µM |  | > 100 µM |  | > 83 |  | 26.7 µM |  | > 100 µM |  |  | > 100 µM |  | 2.03 µM | 4.02 µM
Cc1cccc2cc3ccc4ccccc4c3cc12 |  | > 100 µM |  | > 100 µM |  | > 100 |  | > 100 µM |  | > 100 µM |  |  | > 100 µM |  | 53 µM | 47.4 µM
CCOC(=O)c1cn2ncnc(Oc3ccc(NC(=O)NCCN(CC)CC)c(Cl)c3)c2c1C | 2 | 4.75 µM | 1.84 | 4.07 µM | 1.76 | 6.19 | 2.1 | 4.37 µM | 3.97 | 16.1 µM | 1.96 | 2.1 | 4.6 µM | 1.89 | 4.05 µM | 5.15 µM
O=C(O)CCc1nc(-c2ccccc2)c(-c2ccccc2)o1 |  | > 100 µM |  | > 100 µM |  | > 100 |  | > 100 µM |  | > 100 µM |  |  | > 100 µM |  | > 100 µM | > 100 µM
